Assays:
[1] = test system: T0 corn plants; assay: Post-emergence glyphosate tolerance of T0 dgt-28 corn (Table 19); format: in vivo, Zea mays
Experimental: Zea mays dgt-28 transformation events (T0) were allowed to acclimate in the greenhouse and were grown until plants had transitioned from tissue culture to greenhouse growing conditions (i.e., 2-4 new, normal looking leaves had emerged from the whorl). Plants were grown at 27° C. under 16 hour light:8 hour dark conditions in the greenhouse. The plants were then treated with commercial formulations of DURANGO DMA™ (containing the herbicide glyphosate) with the addition of 2% w/v ammonium-sulfate. Herbicide applications were made with a track sprayer at a spray volume of 187 L/ha, 50-cm spray height. T0 plants were sprayed with a range of glyphosate from 280-4480 g ae/ha glyphosate, which is capable of significant injury to untransformed corn lines. A lethal dose is defined as the rate that causes >95% injury to the B104 inbred.
T0 events of dgt-28 linked with TraP4, TraP5, TraP8 and TraP23 were generated by Agrobacterium transformation and were allowed to acclimate under controlled growth chamber conditions until 2-4 new, normal looking leaves had emerged from the whorl. Plants were assigned individual identification numbers and sampled for copy number analyses of both dgt-28 and aad-1. Based on copy number analyses, plants were selected for protein expression analyses. […]

[2] = test system: T1 wheat; assay: Detailed phenotypic screen of T1 wheat events at different glyphosate dose rates (Tables 41, 42); format: in vivo, Triticum aestivum; conditions: untransformed donor wheat plants
Experimental: Four replicates of 12 T1 seeds per selected event and eight replicates (12 seeds each) of the untransformed donor wheat line Bobwhite MPB26RH were sown in 85 mm pots and grown to the 2-leaf stage under well-watered conditions at 25° C. with supplementary lighting providing a 12 hour photoperiod. The pots were placed in a randomised design to allow environmental effects to be removed during data analysis. At the 2-leaf stage, plant length and number of leaves was recorded for each plant before spraying with glyphosate. The first, second, third and fourth replicate of T1 plants for each selected event and the untransformed donor wheat line were sprayed at a dose rate of 420, 840, 1680 and 3360 g ai/ha, respectively. The fifth, sixth, seventh and eighth replicate of untransformed donor wheat line (total 48 plants) were not sprayed. At 7, 14 and 21 days after spraying, the plants were scored for plant length, number of leaves and phenotypic response to glyphosate using the scoring scale in Table 37. Any morphological abnormalities were also recorded. For scoring, the scorer was “blinded” with regard to plant genotype and spray dose rate to prevent scoring bias. Plants with delayed germination and poor establishment (criteria: plant length <6 cm) at the pre-spray scoring were excluded from subsequent analyses.
This differentiation was maximal at 21 days and was observed across all glyphosate dose rates. Table 41. To assess the tolerance of the transgenic events to glyphosate at each spray dose rate, null T1 plants (i.e. plants not carrying the transgene) were excluded from subsequent analyses. T1 plants with a response score of less than three at 21 days after spraying were considered to have the null genotype. […]

[3] = Replicate 1, 420 g ai/ha, 10 plants at pre-spray scoring
[4] = Replicate 2, 840 g ai/ha, 10 plants at pre-spray scoring
[5] = Replicate 3, 1680 g ai/ha, 11 plants at pre-spray scoring
[6] = Replicate 4, 3360 g ai/ha, 10 plants at pre-spray scoring

Question: Which “non-transformed plants controlled with glyphosate at concentrations as low as” value [1] does the source give for `O=C(O)CNCP(=O)(O)O` [glyphosate, N-(phosphonomethyl) glycine] here?
Answer: ≥ 280 g ae/ha

Question: And the “No. surviving plants at 14 days after spraying” value (shortened to “No. surviving plants at 14 days”) [2, 3]?
Answer: 0

Question: And the “No. surviving plants at 21 days after spraying” value (shortened to “No. surviving plants at 21 days”) [2, 3]?
Answer: 0

Question: And the “No. surviving plants at 14 days” value [2, 4]?
Answer: 3

Question: And the “No. surviving plants at 21 days” value [2, 4]?
Answer: 0

Question: What about the “No. surviving plants at 14 days” value [2, 5] of the same molecule?
Answer: 0

Question: What about the “No. surviving plants at 21 days” value [2, 5] of the same molecule?
Answer: 0

Question: What about the “No. surviving plants at 14 days” value [2, 6] of the same molecule?
Answer: 1

Question: And the “No. surviving plants at 21 days” value [2, 6]?
Answer: 0

Source: patent US10577618B2, “Class of glyphosate resistance genes” (Dow AgroSciences LLC, priority 2012, dated 2020)
